Test results taken from patent publication US10179794B2, “Thieno[3,2-d]pyrimidine, furo[3,2-d]pyrimidine, and pyrrolo[3,2-D]pyrimidines useful for treating respiratory syncitial virus infections” (Gilead Sciences, Inc., priority 2014, dated 2019).
Read-outs that look alike come from different tables or passages of the source.

Legend:
[1] = Cytotoxicity assay in HEp-2 cells; assay type: cell-based; settings: human, uninfected HEp-2 cells, CellTiter Glo
Description: (§1) Cytotoxicity of tested compounds is determined in uninfected HEp-2 cells in parallel with the antiviral activity using the cell viability reagent in a similar fashion as described before for other cell types (Cihlar et al., Antimicrob Agents Chemother. 2008,52(2):655-65.). The same protocol as for the determination of antiviral activity is used for the measurement of compound cytotoxicity except that the cells are not infected with RSV. Instead, an uninfected cell mixture at the same density is added at 20 ul/well to plates containing prediluted compounds, also at 100 nl/sample. Assay plates are then incubated for 4 days followed by a cell viability test using the same CellTiter Glo reagent addition and measurement of luminescent readouts. Untreated cell and cells treated at 2 uM puromycin (Sigma, St. Louis, Mo.) serve as 100% and 0% cell viability control, respectively. The percent of cell viability is calculated for each tested compound concentration relative to the 0% and 100% controls and the CC50 value is determined by non-linear regression as a compound concentration reducing the cell viability by 50%.

[2] = Cytotoxicity assay in MT-4 cells; assay type: cell-based; settings: human, Cell-Titer Glo
Description: (§2) The MT-4 cell line was obtained from the NIH AIDS Research and Reference Reagent Program (Germantown, Md.) and cultured in RPMI-1640 medium (Irvine Scientific, Santa Ana, Calif., Cat #9160) supplemented with 10% FBS, 100 units/mL penicillin, 100 units/mL streptomycin, and 2 mM L-Glutamine. The MT-4 cells were passaged twice per week to maintain cell densities below 0.6×10^6 cells/mL. Complete RPMI-1640 media containing 100× concentrations of 3-fold serially diluted compound, ranging from 26 nM to 530 μM, were stamped in quadruplicate into black 384-well plates. After compound addition, 2×10^3 MT-4 cells were added to each well using a MicroFlo liquid dispenser (BioTek, Winooski, Vt.) and the cells were cultured for 5 days at 37° C. in a 5% CO2 incubator. Following the incubation the cells were allowed to equilibrate to 25° C. and cell viability was determined by adding 25 μL of Cell-Titer Glo viability reagent. The mixture was incubated for 10 minutes at 25° C., and the luminescence signal was quantified on a Victor Luminescence plate reader. The CC50 value is defined as the concentration of compound that reduces cell viability by 50% as determined by the Cell-Titer Glo signal. The data were analyzed using Pipeline Pilot Plate Data Analytics Collection software (Version 7.0, Accelrys, San Diego, Calif.). CC50 values were calculated from a non-linear regression analysis using a 4-parameter sigmoidal dose-response equation: Y=Bottom+(Top-Bottom)/(1+10^[(LogCC50-X)*HillSlope]) where the Top and Bottom were fixed at 100% and 0% cell viability, respectively. CC50 values were calculated as the average± standard deviation of 3 independent experiments.

[3] = tested on: RSV strain A2; assay: Anti-RSV activity, infectious cytopathic cell protection assay in HEp-2 cells; assay type: cell-based, Respiratory Syncytial Virus (RSV)
Description: Antiviral activity against RSV is determined using an infectious cytopathic cell protection assay in HEp-2 cells. In this assay, compounds inhibiting viral infection and/or replication produce a cytoprotective effect against the virus-induced cell killing that can be quantified using a cell viability reagent. The techniques used here are novel adaptations of methods described in published literature (Chapman et al., Antimicrob Agents Chemother. 2007, 51 (9):3346-53.)
HEp-2 cells are obtained from ATCC (Manassas, Va.) and maintained in MEM media supplemented with 10% fetal bovine serum and penicillin/streptomycin. Cells are passaged twice a week and kept at subconfluent stage. Commercial stock of RSV strain A2 (Advanced Biotechnologies, Columbia, Md.) is titered before compound testing to determine the appropriate dilution of the virus stock that generates desirable cytopathic effect in HEp-2 cells.
For antiviral tests, HEp-2 cells are grown in large cell culture flasks to near confluency but not fully so. The compounds to be tested are prediluted in DMSO in 384-well compound dilution plates, either in an 8 or 40 sample per plate standardized dose response format. 3-fold serial dilution increments of each test compound are prepared in the plates and test samples are transferred via acoustic transfer apparatus (Echo, Labcyte) at 100 nl per well into cell culture assay 384-well plates. Each compound dilution is transferred in single or quadruplicate samples into dry assay plates, which are stored until assay is ready to go. The positive and negative controls are laid out in opposite on ends of the plate in vertical blocks (1 column).
Subsequently, an infectious mixture is prepared using an appropriate dilution of virus stock previously determined by titration with cells at a density of 50,000/ml and 20 uL/well is added to test plates w/compounds via automation (uFlow, Biotek). Each plate includes negative and positive controls (16 replicates each) to create 0% and 100% virus inhibition standards, respectively. Following the infection with RSV, testing plates are incubated for 4 days in a 37° C. cell culture incubator. After the incubation, a cell viability reagent, Cell TiterGlo (Promega, Madison, Wis.) is added to the assay plates, which are incubated briefly, and a luminescent readout is measured (Envision, Perkin Elmer) in all the assay plates. The RSV-induced cytopathic effect, percentage inhibition, is determined from the levels of remaining cell viability. These numbers are calculated for each tested concentration relative to the 0% and 100% inhibition controls, and the EC50 value for each compound is determined by non-linear regression as a concentration inhibiting the RSV-induced cytopathic effect by 50%. Various potent anti-RSV tool compounds are used as positive controls for antiviral activity.

[4] = tested on: HEp-2 cells; assay: Cytotoxicity assay in HEp-2 cells; assay type: cell-based; settings: uninfected HEp-2 cells, 4 days, CellTiter Glo
Description: as §1

[5] = tested on: MT-4 cells; assay: Cytotoxicity assay in MT-4 cells; assay type: cell-based; settings: 5 days, Cell-Titer Glo
Description: as §2

[6] = target: T1, RSV ribonucleoprotein (RNP) complexes (Human respiratory syncytial virus A, UniProt P28887); assay: RSV RNP assay (inhibition of RSV RNP transcription); assay type: biochemical, RSV A2; settings: crude RSV RNP complexes, 90 minute incubation at 30° C., total radiolabled transcripts reduced by 50%
T1 construct: The supernatant (S3) fraction, containing the enriched RSV RNP complexes, was collected; endogenous in cells; host or cells: HEp-2 cells infected with RSV A2; detergent-extracted S3 fraction (crude RNP)
Description: RSV ribonucleoprotein (RNP) complexes were prepared from a method modified from Mason et al (1). HEp-2 cells were plated at a density of 7.1×10^4 cells/cm^2 in MEM+10% fetal bovine serum (FBS) and allowed to attach overnight at 37° C. (5% CO2). Following attachment, the cells were infected with RSV A2 (MOI=5) in 35 mL MEM+2% FBS. At 20 hours post-infection, the media was replaced with MEM+2% FBS supplemented with 2 m/mL actinomycin D and returned to 37° C. for one hour. The cells were then washed once with PBS and treated with 35 mL of PBS+250 m/mL lyso-lecithin for one minute, after which all liquid was aspirated. The cells were harvested by scrapping them into 1.2 mL of buffer A [50 mM TRIS acetate (pH 8.0), 100 mM potassium acetate, 1 mM DTT and 2 m/mL actinomycin D] and lysed by repeated passage through an 18 gauge needle (10 times). The cell lysate was placed in ice for 10 minutes and then centrifuged at 2400 g for 10 minutes at 4° C. The supernatant (S1) was removed and the pellet (P1) was disrupted in 600 uL of Buffer B [10 mM TRIS acetate (pH 8.0), 10 mM potassium acetate and 1.5 mM MgCl2] supplemented with 1% Triton X-100 by repeated passage through an 18 gauge needle (10 times). The resuspended pellet was placed in ice for 10 minutes and then centrifuged at 2400 g for 10 minutes at 4° C. The supernatant (S2) was removed and the pellet (P2) was disrupted in 600 uL of Buffer B supplemented with 0.5% deoxycholate and 0.1% Tween 40. The resuspended pellet was placed in ice for 10 minutes and then centrifuged at 2400 g for 10 minutes at 4° C. The supernatant (S3) fraction, containing the enriched RSV RNP complexes, was collected and the protein concentration determined by UV absorbance at 280 nm. Aliquoted RSV RNP S3 fractions were stored at −80° C.
Transcription reactions contained 25 μg of crude RSV RNP complexes in 30 μL of reaction buffer [50 mM TRIS-acetate (pH 8.0), 120 mM potassium acetate, 5% glycerol, 4.5 mM MgCl2, 3 mM DTT, 2 mM ethyleneglycol-bis(2-aminoethylether)-tetraacetic acid (EGTA), 50 μg/mL BSA, 2.5 U RNasin (Promega), ATP, GTP, UTP, CTP and 1.5 uCi [α-^32P] NTP (3000 Ci/mmol)]. The radiolabled nucleotide used in the transcription assay was selected to match the nucleotide analog being evaluated for inhibition of RSV RNP transcription. Cold, competitive NTP was added at a final concentration of one-half its Km (ATP=20 μM, GTP=12.5 μM, UTP=6 μM and CTP=2 μM). The three remaining nucleotides were added at a final concentration of 100 μM.
To determine whether nucleotide analogs inhibited RSV RNP transcription, compounds were added using a 6 step serial dilution in 5-fold increments. Following a 90 minute incubation at 30° C., the RNP reactions were stopped with 350 μL of Qiagen RLT lysis buffer and the RNA was purified using a Qiagen RNeasy 96 kit. […]

[7] = human respiratory syncytial virus, 96 h, RSV A2-induced cytopathic effect in HEp-2 cells, 4 days, Cell TiterGlo, read-out: EC50

T1 sequence (P28887 whole entry): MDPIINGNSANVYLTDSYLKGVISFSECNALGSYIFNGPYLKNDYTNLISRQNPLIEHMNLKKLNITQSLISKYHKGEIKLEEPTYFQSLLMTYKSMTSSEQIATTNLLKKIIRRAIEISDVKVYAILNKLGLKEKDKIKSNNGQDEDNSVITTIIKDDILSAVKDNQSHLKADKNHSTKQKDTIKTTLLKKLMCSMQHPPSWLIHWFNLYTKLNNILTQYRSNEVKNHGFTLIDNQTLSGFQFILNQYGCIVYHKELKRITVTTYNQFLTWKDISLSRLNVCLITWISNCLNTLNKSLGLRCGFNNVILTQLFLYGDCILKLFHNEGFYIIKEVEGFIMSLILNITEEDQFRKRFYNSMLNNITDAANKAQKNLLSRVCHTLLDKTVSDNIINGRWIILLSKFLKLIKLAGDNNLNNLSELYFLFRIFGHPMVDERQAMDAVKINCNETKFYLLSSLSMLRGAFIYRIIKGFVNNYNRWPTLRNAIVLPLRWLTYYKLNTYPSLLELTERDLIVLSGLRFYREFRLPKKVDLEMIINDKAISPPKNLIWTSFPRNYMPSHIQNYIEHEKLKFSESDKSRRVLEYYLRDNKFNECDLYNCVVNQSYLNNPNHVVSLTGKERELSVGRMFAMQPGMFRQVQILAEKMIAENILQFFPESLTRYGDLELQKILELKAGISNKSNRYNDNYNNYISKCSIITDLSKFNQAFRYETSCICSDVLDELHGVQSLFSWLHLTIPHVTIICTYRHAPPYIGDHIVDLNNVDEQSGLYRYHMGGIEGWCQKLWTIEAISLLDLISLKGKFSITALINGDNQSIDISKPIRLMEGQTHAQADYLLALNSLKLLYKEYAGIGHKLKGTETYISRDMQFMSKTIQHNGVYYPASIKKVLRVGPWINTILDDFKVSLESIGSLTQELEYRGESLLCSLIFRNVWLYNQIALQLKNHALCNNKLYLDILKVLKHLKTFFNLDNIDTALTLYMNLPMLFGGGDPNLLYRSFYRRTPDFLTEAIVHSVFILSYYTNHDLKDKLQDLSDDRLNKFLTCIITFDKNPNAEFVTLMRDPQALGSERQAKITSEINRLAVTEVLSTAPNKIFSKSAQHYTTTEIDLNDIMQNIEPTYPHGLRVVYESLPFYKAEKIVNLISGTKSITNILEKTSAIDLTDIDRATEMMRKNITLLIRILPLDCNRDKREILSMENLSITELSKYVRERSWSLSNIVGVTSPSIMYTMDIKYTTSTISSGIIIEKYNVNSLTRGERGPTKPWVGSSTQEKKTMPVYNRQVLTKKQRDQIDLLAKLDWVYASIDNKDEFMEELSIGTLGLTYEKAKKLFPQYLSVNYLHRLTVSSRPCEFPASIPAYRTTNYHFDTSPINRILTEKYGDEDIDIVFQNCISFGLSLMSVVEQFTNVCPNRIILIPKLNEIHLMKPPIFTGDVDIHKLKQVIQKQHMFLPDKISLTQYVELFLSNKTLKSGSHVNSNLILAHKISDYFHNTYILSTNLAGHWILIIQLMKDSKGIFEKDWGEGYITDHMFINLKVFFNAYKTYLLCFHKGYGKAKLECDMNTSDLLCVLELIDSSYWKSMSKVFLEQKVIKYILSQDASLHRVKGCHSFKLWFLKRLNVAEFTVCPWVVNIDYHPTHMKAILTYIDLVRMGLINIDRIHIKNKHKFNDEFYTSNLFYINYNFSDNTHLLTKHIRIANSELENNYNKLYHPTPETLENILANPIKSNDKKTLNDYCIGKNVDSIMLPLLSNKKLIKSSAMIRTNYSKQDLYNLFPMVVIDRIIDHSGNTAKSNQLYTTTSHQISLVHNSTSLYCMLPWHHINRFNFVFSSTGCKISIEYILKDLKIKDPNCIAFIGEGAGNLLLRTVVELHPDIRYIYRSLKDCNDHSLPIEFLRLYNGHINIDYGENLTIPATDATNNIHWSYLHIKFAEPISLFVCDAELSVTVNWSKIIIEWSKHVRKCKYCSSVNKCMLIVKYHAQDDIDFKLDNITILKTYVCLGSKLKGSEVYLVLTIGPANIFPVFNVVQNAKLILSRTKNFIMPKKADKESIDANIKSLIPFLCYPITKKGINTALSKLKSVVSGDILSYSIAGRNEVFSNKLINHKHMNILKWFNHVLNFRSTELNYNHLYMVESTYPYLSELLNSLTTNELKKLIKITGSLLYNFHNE
T1 sequence (P03421 whole entry, further chain): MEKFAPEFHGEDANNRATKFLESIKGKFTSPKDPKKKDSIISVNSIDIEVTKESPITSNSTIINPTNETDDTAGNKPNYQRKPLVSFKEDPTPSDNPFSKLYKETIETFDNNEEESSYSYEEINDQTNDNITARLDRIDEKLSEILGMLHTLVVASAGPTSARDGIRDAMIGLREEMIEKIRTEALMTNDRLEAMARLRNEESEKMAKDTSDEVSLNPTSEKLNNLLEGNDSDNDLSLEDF

SMILES	CC50 at 4 days [1]	CC50 at 5 days [2]	EC50 [3, 7]	IC50 [6]	other results
[N-]=[N+]=N[C@]1(CO)O[C@@H](c2csc3c(N)ncnc23)[C@H](F)[C@@H]1O [Example 1, (2R,3R,4R,5S)-5-(4-aminothieno[3,2-d]pyrimidin-7-yl)-2-azido-4-fluoro-2-(hydroxymethyl)-tetrahydrofuran-3-ol]	> 100 µM	59 µM	0.208 µM	–	–
N#C[C@]1(CO)O[C@@H](c2csc3c(N)ncnc23)[C@H](F)[C@@H]1O [Example 2, (2R,3R,4R,5S)-5-(4-aminothieno[3,2-D]pyrimidin-7-yl)-4-fluoro-3-hydroxy-2-(hydroxymelthyl)tetrahydrofuran-2-carbonitrile]	–	–	–	–	CC50 [4]: > 100 µM; CC50 [5]: > 114 µM; EC50 ([3]; RSV A2-induced cytopathic effect in HEp-2 cells, 4 days, Cell TiterGlo, read-out: EC50): 6.5 µM
N#C[C@]1(CO)O[C@@H](c2csc3c(N)ncnc23)[C@H](O)[C@@H]1O [Example 3, (2R,3S,4R,5S)-5-(4-aminothieno[3,2-d]pyrimidin-7-yl)-3,4-dihydroxy-2-(hydroxymelthyl)tetrahydrofuran-2-carbonitrile]	> 50 µM	> 57 µM	5 µM	–	–
[N-]=[N+]=N[C@]1(CO)O[C@@H](c2csc3c(N)ncnc23)[C@H](Cl)[C@@H]1O [Example 4, (2R,3R,4R,5S)-5-(4-Aminothieno[3,2-d]pyrimidin-7-yl)-2-azido-4-chloro-2-(hydroxymethyl)tetrahydrofuran-3-ol]	> 93 µM	93 µM	> 98 µM	–	–
CCOC(=O)[C@H](C)NP(=O)(OC[C@@]1(N=[N+]=[N-])O[C@@H](c2csc3c(N)ncnc23)[C@H](F)[C@@H]1O)Oc1ccccc1 (stereo partly drawn) [Example PD1, (2S)-ethyl 2-(((((2R,3R,4R,5S)-5-(4-aminothieno[3,2-d]pyrimidin-7-yl)-2-azido-4-fluoro-3-hydroxytetrahydrofuran-2-yl)methoxy)(phenoxy)phosphoryl)amino)propanoate]	> 50 µM	10.4 µM	–	–	EC50 ([3]; human respiratory syncytial virus, HEp-2, 96 h): 0.556 µM
[N-]=[N+]=N[C@]1(COP(=O)(O)OP(=O)(O)OP(=O)(O)O)O[C@@H](c2csc3c(N)ncnc23)[C@H](F)[C@@H]1O [Example TP1, ((2R,3R,4R,5S)-5-(4-aminothieno[3,2-d]pyrimidin-7-yl)-2-azido-4-fluoro-3-hydroxytetrahydrofuran-2-yl)methyl tetrahydrogen triphosphate]	–	–	–	0.076 µM	–
N#C[C@]1(COP(=O)(O)OP(=O)(O)OP(=O)(O)O)O[C@@H](c2csc3c(N)ncnc23)[C@H](F)[C@@H]1O [Example TP2, ((2R,3R,4R,5S)-5-(4-aminothieno[3,2-d]pyrimidin-7-yl)-2-cyano-4-fluoro-3-hydroxytetrahydrofuran-2-yl)methyl tetrahydrogen triphosphate]	–	–	–	0.042 µM	–
N#C[C@]1(COP(=O)(O)OP(=O)(O)OP(=O)(O)O)O[C@@H](c2csc3c(N)ncnc23)[C@H](O)[C@@H]1O [Example TP3, ((2R,3S,4R,5S)-5-(4-aminothieno[3,2-d]pyrimidin-7-yl)-2-cyano-3,4-dihydroxytetrahydrofuran-2-yl)methyl tetrahydrogen triphosphate]	–	–	–	0.036 µM	–
[N-]=[N+]=N[C@]1(COP(=O)(O)OP(=O)(O)OP(=O)(O)O)O[C@@H](c2csc3c(N)ncnc23)[C@H](Cl)[C@@H]1O [Example TP4, ((2R,3R,4R,5S)-5-(4-aminothieno[3,2-d]pyrimidin-7-yl)-2-azido-4-chloro-3-hydroxytetrahydrofuran-2-yl)methyl tetrahydrogen triphosphate]	–	–	–	0.2 µM	–
